Target: T1, TTL (Canis lupus familiaris, UniProt A0A8I3N5B1)
T1 construct: His-Tag (N, cleaved yes); Sumo (N, cleaved yes); made in house; host or cells: E. coli BL21 (DE3)
T1 sequence (A0A8I3N5B1 1-377): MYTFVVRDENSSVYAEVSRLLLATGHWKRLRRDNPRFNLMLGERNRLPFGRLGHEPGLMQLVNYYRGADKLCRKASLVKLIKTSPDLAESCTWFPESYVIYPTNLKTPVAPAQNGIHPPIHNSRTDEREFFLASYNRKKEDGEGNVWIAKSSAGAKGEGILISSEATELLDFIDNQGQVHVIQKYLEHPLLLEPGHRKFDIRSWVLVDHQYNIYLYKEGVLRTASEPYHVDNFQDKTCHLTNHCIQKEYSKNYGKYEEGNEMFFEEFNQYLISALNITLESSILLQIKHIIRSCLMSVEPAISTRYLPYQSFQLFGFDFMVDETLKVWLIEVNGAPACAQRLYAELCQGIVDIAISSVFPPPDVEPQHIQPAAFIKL
Assay: TTL mediated labelling of Tub-tagged proteins with coumarin derivative 7 (SDS-PAGE, in-gel fluorescence)
Format: biochemical
Settings: 1 μM TTL, 37°, 1-6 h
Experimental: TTL (Canis lupus) having NCBI Accession number XP_540180.2 was expressed in E. coli (BL21 DE3) as Sumo-TTL fusion protein with an N-terminal His-Tag. Cells were induced with 0.5 mM IPTG and incubated at 18° C. for 18 h. Lysis was performed in presence of Lysozyme (100 μg/ml), DNAse (25 μg/ml) and PMSF (2 mM) followed by sonification (Branson® Sonifier; 16×8sec, 20% Amplitude) and debris centrifugation at 20.000 g for 30 min. His-Sumo-TTL was purified using a 5 ml His-Trap. For removal of the Sumo-Tag, peak fractions were incubated with SenP2 protease at 4° C. overnight. A second His-Trap run then removed the Sumo fraction. Purified protein was then desalted on a PD10 column (GE Healthcare); buffer was exchanged to MES/K pH 6.8 (20 mM MES, 100 mM KCl, 10 mM MgCl2). Protein aliquots were shock-frozen and stored at −80° C. at 0.8 g/l. Functionalization reactions were performed in a 150 μL solution consisting of 20 mM MES/K pH 7.0, 100 mM KCl, 10 mM MgCl2, 2.5 mM ATP, 1 mM (7), 1 μM TTL, 5 μM ubiquitin and 5 mM DTT. The mixture was incubated at 37° for 1-6 h. Proteins were separated and analysed by SDS-PAGE and a ChemiDoc™ XRS+gel imaging system (Bio-Rad, Hercules, Calif., US). Functionalization reactions were performed in a 150 μL solution consisting of 20 mM MES/K pH 7.0, 100 mM KCl, 10 mM MgCl2, 2.5 mM ATP, 1 mM (7), 1 μM TTL, 5 μM nanobody and 5 mM DTT. The mixture was incubated at 37° for 1-6 h. Proteins were separated and analysed by SDS-PAGE and a ChemiDoc™ XRS+gel imaging system (Bio-Rad, Hercules, Calif., US). Functionalization reactions were performed in a 150 μL solution consisting of 20 mM MES/K pH 7.0, 100 mM KCl, 10 mM MgCl2, 2.5 mM ATP, 1 mM (24), 1 μM TTL, 5 μM nanobody and 5 mM DTT. The mixture was incubated at 37° for 1-6 h. Proteins were separated and analysed by SDS-PAGE and a ChemiDoc™ XRS+gel imaging system (Bio-Rad, Hercules, Calif., US).

N[C@@H](Cc1cc(=O)oc2cc(O)ccc12)C(=O)O.O=C(O)C(F)(F)F [compound 7, (1S)-1-Carboxy-2-(7-hydroxy-2-oxo-2H-chromen-4-yl)ethyl ammonium trifluoroacetate]
successfully functionalized: TTL mediated functionalization of Tub-tagged Annexin V (SDS-PAGE and in-gel fluorescence (FIG. 10)) | TTL mediated functionalization of Tub-tagged GBP nanobody (1 mM (7), 5 μM nanobody, SDS-PAGE and in-gel fluorescence (FIG. 9)) | TTL mediated functionalization of Tub-tagged ubiquitin (1 mM (7), 5 μM ubiquitin, SDS-PAGE and in-gel fluorescence (FIG. 8))

Source: US11572384B2, “Unusual substrates of tubulin tyrosine ligase” (FORSCHUNGSVERBUND BERLIN E.V., priority 2016, dated 2023)
